Data published in patent US20210154190A1, “SHP2 INHIBITOR COMPOSITIONS AND METHODS FOR TREATING CANCER” (Revolution Medicines, Inc., priority 2018, published 2021).

Key:
[1] = molecular target: T1, SHP2 WT (Homo sapiens, UniProt Q06124); assay: EGF-induced pERK AlphaLISA in T-REx-293-SHP2 cells, WT; format: cell-based; details: Variant WT
T1 construct: expressed in transfected cells; host or cells: Flp-In T-REx-293 (T-REx-293-SHP2)
Protocol: (§1) An experimental system was creating to test the activity of SHP2 mutants on an isogenic background (FIG. 6). The Flp-In T-REx-293 cell line was obtained from Gibco® and cultivated in high glucose DMEM™ containing 2 mM L-glutamine (Hyclone®), supplemented with 10% FBS (Hyclone®), 1% penicillin/streptomycin (Gibco®), 100 μg/mL Zeocin™ (Gibco®), and 15 μg/mL blasticidin (Gibco®) in a humidified cell culture incubator at 37° C., 5% CO2.
(§2) Wild type or mutant SHP2 variants were synthesized and subcloned into the pcDNA5/FRT/TO vector (ThermoFisher). Plasmids were co-transfected with the pOG44 Flp recombinase expression plasmid (ThermoFisher®) into Flp-In T-REx-293 cells using X-tremegene 9 DNA transfection reagent (Sigma®), according to the manufacturer's instructions. […]
(§3) For the final 5 minutes of drug treatment, cells were stimulated with 50 ng/mL Epidermal Growth Factor (Sigma®). […] Samples were read using an EnVision Multilabel Plate Reader (Perkin Elmer®) using standard AlphaLISA settings. Assay data was plotted and EC50 values were determined using four-parameter concentration-response model in GraphPad Prism 7. […]

[2] = molecular target: T2, SHP2 E76K (Homo sapiens, UniProt Q06124, E76K); assay: EGF-induced pERK AlphaLISA in T-REx-293-SHP2 cells, E76K; format: cell-based; details: Variant E76K
T2 construct: expressed in transfected cells; host or cells: Flp-In T-REx-293 (T-REx-293-SHP2)
Protocol: as §1, §2, §3

[3] = molecular target: T3, SHP2 D61G (Homo sapiens, UniProt Q06124, D61G); assay: EGF-induced pERK AlphaLISA in T-REx-293-SHP2 cells, D61G; format: cell-based; details: Variant D61G
T3 construct: expressed in transfected cells; host or cells: Flp-In T-REx-293 (T-REx-293-SHP2)
Protocol: as §1, §2, §3

[4] = molecular target: T4, SHP2 S189A (Homo sapiens, UniProt Q06124, S189A); assay: EGF-induced pERK AlphaLISA in T-REx-293-SHP2 cells, S189A; format: cell-based; details: Variant S189A
T4 construct: expressed in transfected cells; host or cells: Flp-In T-REx-293 (T-REx-293-SHP2)
Protocol: as §1, §2, §3

[5] = molecular target: T5, SHP2 L262R (Homo sapiens, UniProt Q06124, L262R); assay: EGF-induced pERK AlphaLISA in T-REx-293-SHP2 cells, L262R; format: cell-based; details: Variant L262R
T5 construct: expressed in transfected cells; host or cells: Flp-In T-REx-293 (T-REx-293-SHP2)
Protocol: as §1, §2, §3

[6] = molecular target: T6, SHP2 F285S (Homo sapiens, UniProt Q06124, F285S); assay: EGF-induced pERK AlphaLISA in T-REx-293-SHP2 cells, F285S; format: cell-based; details: Variant F285S
T6 construct: expressed in transfected cells; host or cells: Flp-In T-REx-293 (T-REx-293-SHP2)
Protocol: as §1, §2, §3

[7] = molecular target: T7, SHP2 S502P (Homo sapiens, UniProt Q06124, S502P); assay: EGF-induced pERK AlphaLISA in T-REx-293-SHP2 cells, S502P; format: cell-based; details: Variant S502P
T7 construct: expressed in transfected cells; host or cells: Flp-In T-REx-293 (T-REx-293-SHP2)
Protocol: as §1, §2, §3

[8] = molecular target: T8, SHP2 A72V (Homo sapiens, UniProt Q06124, A72V); assay: EGF-induced pERK AlphaLISA in T-REx-293-SHP2 cells, A72V; format: cell-based; details: Variant A72V
T8 construct: expressed in transfected cells; host or cells: Flp-In T-REx-293 (T-REx-293-SHP2)
Protocol: as §1, §2, §3

[9] = molecular target: T9, SHP2 E69K (Homo sapiens, UniProt Q06124, E69K); assay: EGF-induced pERK AlphaLISA in T-REx-293-SHP2 cells, E69K; format: cell-based; details: Variant E69K
T9 construct: expressed in transfected cells; host or cells: Flp-In T-REx-293 (T-REx-293-SHP2)
Protocol: as §1, §2, §3

[10] = molecular target: T10, SHP2 G503V (Homo sapiens, UniProt Q06124, G503V); assay: EGF-induced pERK AlphaLISA in T-REx-293-SHP2 cells, G503V; format: cell-based; details: Variant G503V
T10 construct: expressed in transfected cells; host or cells: Flp-In T-REx-293 (T-REx-293-SHP2)
Protocol: as §1, §2, §3

[11] = molecular target: T11, SHP2 T73I (Homo sapiens, UniProt Q06124, T73I); assay: EGF-induced pERK AlphaLISA in T-REx-293-SHP2 cells, T73I; format: cell-based; details: Variant T73I
T11 construct: expressed in transfected cells; host or cells: Flp-In T-REx-293 (T-REx-293-SHP2)
Protocol: as §1, §2, §3

[12] = molecular target: T12, SHP2 Q506P (Homo sapiens, UniProt Q06124, Q506P); assay: EGF-induced pERK AlphaLISA in T-REx-293-SHP2 cells, Q506P; format: cell-based; details: Variant Q506P
T12 construct: expressed in transfected cells; host or cells: Flp-In T-REx-293 (T-REx-293-SHP2)
Protocol: as §1, §2, §3

[13] = molecular target: T13, SHP2 T253M/Q257L (Homo sapiens, UniProt Q06124, Q257L/T253M); assay: SHP2 allosteric inhibition assay (DiFMUP), T253M/Q257L; format: biochemical; parameters: expressed in transfected cells; details: Variant T253M/Q257L
T13 sequence (Q06124 1-593 T253M/Q257L): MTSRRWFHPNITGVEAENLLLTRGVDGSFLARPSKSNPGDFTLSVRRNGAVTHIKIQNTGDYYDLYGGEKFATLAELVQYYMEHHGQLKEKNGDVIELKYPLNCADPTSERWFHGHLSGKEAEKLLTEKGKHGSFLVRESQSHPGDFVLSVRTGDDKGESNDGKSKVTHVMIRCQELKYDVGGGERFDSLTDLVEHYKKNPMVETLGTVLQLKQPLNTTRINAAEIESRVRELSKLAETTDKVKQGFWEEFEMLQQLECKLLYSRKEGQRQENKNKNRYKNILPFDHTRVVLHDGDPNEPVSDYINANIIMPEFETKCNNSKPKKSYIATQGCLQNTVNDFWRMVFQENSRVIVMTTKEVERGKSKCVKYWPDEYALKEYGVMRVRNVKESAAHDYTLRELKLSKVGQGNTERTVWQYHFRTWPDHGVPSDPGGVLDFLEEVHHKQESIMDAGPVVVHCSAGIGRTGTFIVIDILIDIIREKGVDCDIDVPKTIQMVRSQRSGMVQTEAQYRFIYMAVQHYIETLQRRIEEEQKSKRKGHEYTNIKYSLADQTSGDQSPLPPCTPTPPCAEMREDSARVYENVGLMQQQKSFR

[14] = molecular target: T13, SHP2 T253M/Q257L; assay: EGF-induced pERK AlphaLISA in T-REx-293-SHP2 cells, T253M/Q257L; format: cell-based; parameters: expressed in transfected cells; host or cells: Flp-In T-REx-293 (T-REx-293-SHP2)
Protocol: as §1, §2, §3

`Cc1nc(N2CCC3(CC2)CO[C@@H](C)[C@H]3N)c(CO)nc1-c1cccc(Cl)c1Cl` [Compound B] was tested, and the Cellular sensitivity [1] was “yes (Sensitive if IC50 < 2000 nM)”, the Cellular sensitivity [2] was “no (Sensitive if IC50 < 2000 nM)” and the Cellular sensitivity [3] was “yes (Sensitive if IC50 < 2000 nM)”. For the same molecule, the Cellular sensitivity [4] was “yes (Sensitive if IC50 < 2000 nM)”, the Cellular sensitivity [5] was “yes (Sensitive if IC50 < 2000 nM)” and the Cellular sensitivity [6] was “yes (Sensitive if IC50 < 2000 nM)”. The Cellular sensitivity [7] was “yes (Sensitive if IC50 < 2000 nM)”, the Cellular sensitivity [8] was “no (Sensitive if IC50 < 2000 nM)” and the Cellular sensitivity [9] was “yes (Sensitive if IC50 < 2000 nM)”. The Cellular sensitivity [10] was “no (Sensitive if IC50 < 2000 nM)”, the Cellular sensitivity [11] was “yes (Sensitive if IC50 < 2000 nM)” and the Cellular sensitivity [12] was “yes (Sensitive if IC50 < 2000 nM)”. For the same molecule, the Biochemical sensitivity [13] was “no (Sensitive if IC50 < 2000 nM)”, the “inhibition of engineered double mutant in the Compound B binding site” value ([14]; T253M/Q257L, cellular pERK) was “insensitive to inhibition” and the Cellular sensitivity ([14]; Variant T253M/Q257L) was “no (Sensitive if IC50 < 2000 nM)”.
